{"source": "patent US20240148701A1", "about": "“WOULD HEALING METHODS” (The University of Sydney, priority 2021, published 2024)", "key": {"β3-AR": {"molecular_target": "β3-AR (Homo sapiens, UniProt P13945)", "sequence (P13945 whole entry)": "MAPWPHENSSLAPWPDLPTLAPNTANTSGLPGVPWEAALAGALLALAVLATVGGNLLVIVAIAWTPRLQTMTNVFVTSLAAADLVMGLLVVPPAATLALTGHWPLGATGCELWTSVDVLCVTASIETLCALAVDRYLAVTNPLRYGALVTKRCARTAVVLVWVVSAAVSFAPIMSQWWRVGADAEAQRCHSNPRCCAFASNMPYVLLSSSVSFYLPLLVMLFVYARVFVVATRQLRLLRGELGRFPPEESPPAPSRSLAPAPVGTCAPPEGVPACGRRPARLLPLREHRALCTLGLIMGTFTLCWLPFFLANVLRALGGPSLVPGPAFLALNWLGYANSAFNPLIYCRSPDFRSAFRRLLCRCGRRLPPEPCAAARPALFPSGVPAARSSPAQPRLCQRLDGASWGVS", "settings": "cited from earlier work; for affinity and potency at β3-AR: selective agonists; for agonist activity at β3-AR: β1- and β2-AR antagonists"}, "[1]": {"experiment": "Topical lipogel on explanted skin, DESI-Mass spec detection", "type": "in vitro ADME, mouse", "settings": "lipogel applied to freshly explanted skin for 5.5 hrs", "description": "A lipogel comprising the β3AR agonist Mirabegron was applied to freshly explanted skin for 5.5 hrs. Skin was then snap frozen in liquid nitrogen and cryosectioned at 40 μum thickness.\nDESI-Mass spec was then used to scan the tissue at 30 μm resolution. Tissue image was constructed using mass signal 284 which was presented in high quantity throughout the tissue. Mirabegron was detected using mass signal 397 and overlayed onto the tissue image. The same slide used for DESI-Mass spec was subsequently stained with H&E."}, "HUVECs [2]": {"test_system": "HUVECs", "experiment": "Scratch migration assay in HUVECs with Mirabegron", "type": "cell-based, human", "settings": "0.85-850 nM, over 15 hours, between concentrations", "procedure": "(§1) For assessing the effect of Mirabegron on cell migration: Human umbilical vein endothelial cells (HUVECs; Lonza, C2519AS) were cultured in Endothelial Cell Growth Media containing 2% fetal bovine serum (EGM2) (Lonza, CC-3162) at standard conditions of 37° C. and 5% C02 (SC). Human dermal microvascular diabetic and non-diabetic endothelial cells (db-HMVECs and HMVECs: Lonza, CC2930 and CC2543 respectively) were cultured in Microvascular Endothelial Growth Media containing 2% fetal bovine serum (FBS) (EGM-2MV) (Lonza, CC-3202) at ST. Cells were between passage 4 and 7 when used.\nTo first investigate whether the role that β3AR activation plays in endothelial cell migration was dose dependant, the inventors measured migration of HUVECs in media with multiple concentrations of Mirabegron (0.85, 8.5, 85 & 850 nM) using a scratch migration assay."}, "diabetic HMVECs": {"test_system": "diabetic HMVECs", "experiment": "Scratch migration assay in diabetic HMVECs with Mirabegron", "type": "cell-based, human", "settings": "85 nM, 4.5 hours, vs control", "procedure": "as §1\nTo investigate the potential for Mirabegron to improve migration by reversing oxidative stress, diabetic and non-diabetic HMVECs were used in a scratch migration assay. 85 nM of Mirabegron was used with a control on both cell types."}, "C57BL6 mice": {"test_system": "C57BL6 mice", "experiment": "Splinted wound healing model in STZ-diabetic male mice", "type": "in vivo, mouse", "procedure": "8-week-old C57BL6 mice were purchased from Animal Resources Centre (Murdoch, WA) and acclimatised to the Kearns Facility over a 1-week period. Mice were group housed (5/cage) within a Physical Containment Level 2 laboratory and were allowed food and water ad libitum. After acclimatisation, 60 mice were weighed daily and given five consecutive daily intraperitoneal injections of Streptozotocin (STZ) solution (55 mg/kg/day) dissolved in sodium citrate (0.1 M) using a standard insulin needle (30 gauge). After the final injection, mice were weighed and blood glucose level (BGL) measured weekly by pricking the most distal point on the tail with a needle to obtain a blood drop, used with an AccuCheck BGL monitor. Mice became become diabetic over 4 weeks post-STZ, as confirmed with a consistent BGL of 15 mmol/L and if greater than 10% weight loss was observed, insulin was delivered via intraperitoneal injection (1 IU in saline). 4 mice were excluded due to severe weight loss during diabetes induction that exceeded ethical protocols. […] Wounds were measured daily for 12 days by removing opsite covering and using digital callipers to measure wound diameter across 3 axes which were averaged and used to calculate circular wound area. […] As such, wound data from 2 mice in topical group were not recorded following day 8 due to splint detachment. […]"}, "HUVECs [3]": {"test_system": "HUVECs", "experiment": "Cell migration by scratch assay in HUVECs (CL 316,243)", "type": "cell-based, human", "settings": "L-NAME 300 μmol/L with CL 316,243"}, "HUVECs [4]": {"test_system": "HUVECs", "experiment": "Tubule formation in HUVECs on reduced growth factor extracellular matrix", "type": "cell-based, human", "settings": "L-NAME 300 μmol/L with CL 316,243", "procedure": "(§2) Human umbilical vein endothelial cells (HUVECs; Lonza C2519AS, pooled source, Australia) were grown using standard cell culture conditions in endothelial cell growth medium (EGM Plus®, containing 2% fetal bovine serum, Lonza, Australia). All cells were regularly confirmed to be mycoplasma negative. Two different pooled source cell lines were used in experiments and all were used within passages 2-4. Human adult dermal microvascular endothelial cells were also obtained from Lonza (CC-2543, Lonza Australia) and cultured as above but using endothelial growth medium 2-MV bulletkit. Endothelial colony forming cells (ECFCs) were derived from the peripheral blood of participants in the BioHEART study. This registered study (ACTRN12618001322224) complies with the Declaration of Helsinki and the study protocol and design has been approved by the Northern Sydney Local Health District Human Research Ethics Committee (HREC/17/HAWKE/343). […]\n(§3) Once they were ˜70% confluent, cells were re-suspended in diluted EGM Plus® (1:3) and plated on reduced-growth factor extracellular matrix (15 mg/ml, Cultrex, Trevigen, USA) at a density of 1.5×10^4 cells/cm^2. […] Cells were incubated in an EVOS FL Auto Imaging system for 16 hours and tubule formation recorded every hour. Optimal tube formation occurred at the 8-hour timepoint; tubule number at this point was quantified manually using NIH Image J software. […]"}, "[5]": {"test_system": "human adult dermal microvascular endothelial cells (MVEC)", "experiment": "Tubule formation in human adult dermal microvascular endothelial cells", "type": "cell-based", "settings": "β3AR antagonist 1 μmol/L with CL 316,243 100 ng/ml", "procedure": "as §2, §3"}}, "note": "Entries after “also recorded” stand apart in the source; their conditions may differ.", "data": [{"smiles": "O=C(Nc1ccc(C[C@@H]2CC[C@H]([C@H](O)c3ccccc3)N2)cc1)[C@@H]1CCc2nccc(=O)n21", "note": "[vibegron]", "values": [{"measurement": "affinity and potency at β3-AR", "setting": "β3-AR", "value": "high affinity and potency"}]}, {"smiles": "Nc1nc(CC(=O)Nc2ccc(CCNC[C@H](O)c3ccccc3)cc2)cs1", "note": "[Mirabegron, 2-(2-Amino-1,3-thiazol-4-yl)-N-[4-(2-{[(2R)-2-hydroxy-2-phenylethyl]amino}ethyl)phenyl]acetamide]", "values": [{"measurement": "absorption into skin tissue (DESI-Mass spec signal 397)", "setting": "[1]", "value": "detected in the tissue; also recorded: deliver through to the dermis"}, {"measurement": "migration of HUVECs", "setting": "HUVECs [2]", "value": "No significant difference; also recorded: no impact"}, {"measurement": "migration of diabetic HMVECs", "setting": "diabetic HMVECs", "value": "improved the migration; also recorded: seemed to improve the migration; also recorded: improves migration"}, {"measurement": "wound healing (wound closure over time)", "setting": "C57BL6 mice; topical lipogel daily, 12 days, vs vehicle lipogel, p=0.009", "value": "Significant improvement"}, {"measurement": "wound healing at day 2", "setting": "C57BL6 mice; topical, day 2, n=14, p=0.0238", "value": "significant improvement"}, {"measurement": "affinity and potency at β3-AR", "setting": "β3-AR", "value": "high affinity and potency"}]}, {"smiles": "CC(C)(C)NCC(O)COc1cccc2c1CC(O)C(O)C2", "note": "(stereo not shown) [nadolol]", "values": [{"measurement": "affinity at β3-AR", "setting": "β3-AR; β-AR antagonists", "value": "atypically low affinity"}]}, {"smiles": "CC(C)NCC(O)COc1cccc2[nH]ccc12", "note": "(stereo not shown) [pindolol]", "values": [{"measurement": "agonist activity at β3-AR", "setting": "β3-AR", "value": "partial agonist activity"}]}, {"smiles": "CC(C)(Cc1c[nH]c2ccccc12)NCC(O)COc1ccccc1C#N", "note": "(stereo not shown) [bucindolol]", "values": [{"measurement": "agonist activity at β3-AR", "setting": "β3-AR", "value": "partial agonist activity"}]}, {"smiles": "CC(C)(C)NCC(O)COc1cccc2[nH]c(=O)[nH]c12", "note": "(stereo not shown) [CGP12177A]", "values": [{"measurement": "agonist activity at β3-AR", "setting": "β3-AR", "value": "partial agonist activity"}]}, {"smiles": "O=C(O)c1cccc(-c2cccc(NCCNC[C@H](O)c3cccc(Cl)c3)c2)c1", "note": "[solabegron]", "values": [{"measurement": "affinity and potency at β3-AR", "setting": "β3-AR", "value": "high affinity and potency"}]}, {"smiles": "Cc1cc(OCC(=O)O)c(C)cc1CCN[C@@H](C)[C@H](O)c1ccc(O)cc1", "note": "[ritobegron]", "values": [{"measurement": "affinity and potency at β3-AR", "setting": "β3-AR", "value": "high affinity and potency"}]}, {"smiles": "COC(=O)[C@@H](N)CCCNC(=N)N[N+](=O)[O-]", "note": "[L-NAME, Nω-nitro-L-arginine methyl ester]", "values": [{"measurement": "effect on β3AR-stimulated cell migration rate in HUVECs", "setting": "HUVECs [3]", "value": "abolished"}, {"measurement": "effect on β3AR-stimulated tubule formation in HUVECs", "setting": "HUVECs [4]", "value": "abolished"}]}, {"smiles": "CCc1ccccc1OC[C@@H](O)CN[C@H]1CCCc2ccccc21.O=C(O)C(=O)O", "note": "[SR 592230A]", "values": [{"measurement": "effect on CL 316,243-induced tubule formation", "setting": "[5]", "value": "abolished"}]}]}
